Legend:
Type in all cases: in vivo
[1] = system: barnyardgrass (Echinochloa crus-galli); experiment: Test G Pre-Emergence Protocol; conditions: Echinochloa crus-galli, pre-emergence, 312 h, evaluated after 13 days; for pest or weed control at 15.625 g/ha: 15.625 g ai/ha, read-out: Barnyard grass damage rating (100=total damage to plant; 0=no damage to plant); for pest or weed control at 62.5 g/ha: 62.5 g ai/ha, 100=total damage to plant, 0=no damage to plant, read-out: plant damage rating, Barnyardgrass; for pest or weed control at 250 g/ha: 250 g ai/ha, read-out: Barnyardgrass damage rating (100=total damage to plant; 0=no damage to plant)
In short: (§1)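 Seeds were sown in standard soil and kept one day in a glasshouse (24/16° C day/night, 14 h light, 65% humidity), then sprayed with compound in acetone/water (50:50) containing 0.5% Tween 20 at 15.625, 62.5 or 250 g/ha. Damage was scored after 13 days (0 = none, 100 = total).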

corn (Zea mays) [2] = experiment: Test G Pre-Emergence Protocol; conditions: Zea mays, pre-emergence, 312 h, evaluated after 13 days; for plant injury at 15.625 g/ha: 15.625 g ai/ha; for plant injury at 15.625 g/ha / plant injury at 250 g/ha: read-out: Corn damage rating (100=total damage to plant; 0=no damage to plant); for plant injury at 62.5 g/ha: 62.5 g ai/ha, 100=total damage to plant, 0=no damage to plant, read-out: plant damage rating, Corn; for plant injury at 250 g/ha: 250 g ai/ha
In short: as §1

[3] = system: giant foxtail (Setaria faberi); experiment: Test G Pre-Emergence Protocol; conditions: Setaria faberi, pre-emergence, 312 h, evaluated after 13 days; for pest or weed control at 15.625 g/ha: 15.625 g ai/ha; for pest or weed control at 15.625 g/ha / pest or weed control at 250 g/ha: read-out: Foxtail, Giant damage rating (100=total damage to plant; 0=no damage to plant); for pest or weed control at 62.5 g/ha: 62.5 g ai/ha, 100=total damage to plant, 0=no damage to plant, read-out: plant damage rating, Foxtail, Giant; for pest or weed control at 250 g/ha: 250 g ai/ha
In short: as §1

[4] = system: ivy-leaved morning glory (Ipomoea hederacea); experiment: Test G Pre-Emergence Protocol; conditions: Ipomoea, pre-emergence, 312 h, evaluated after 13 days; for pest or weed control at 15.625 g/ha: 15.625 g ai/ha, read-out: Morning-glory, Ivy-leaved damage rating (100=total damage to plant; 0=no damage to plant); for pest or weed control at 62.5 g/ha: 62.5 g ai/ha, 100=total damage to plant, 0=no damage to plant, read-out: plant damage rating, Morningglory, Ivy-leaved; for pest or weed control at 250 g/ha: 250 g ai/ha, read-out: Morningglory, Ivy-leaved damage rating (100=total damage to plant; 0=no damage to plant)
In short: as §1

[5] = system: redroot pigweed (Amaranthus retroflexus); experiment: Test G Pre-Emergence Protocol; conditions: Amaranthus retroflexus, pre-emergence, 312 h, evaluated after 13 days; for pest or weed control at 15.625 g/ha: 15.625 g ai/ha; for pest or weed control at 15.625 g/ha / pest or weed control at 250 g/ha: read-out: Pigweed, Redroot damage rating (100=total damage to plant; 0=no damage to plant); for pest or weed control at 62.5 g/ha: 62.5 g ai/ha, 100=total damage to plant, 0=no damage to plant, read-out: plant damage rating, Pigweed, Redroot; for pest or weed control at 250 g/ha: 250 g ai/ha
In short: as §1

[6] = system: velvetleaf (Abutilon theophrasti); experiment: Test G Pre-Emergence Protocol; conditions: Abutilon theophrasti, pre-emergence, 312 h, evaluated after 13 days; for pest or weed control at 15.625 g/ha: 15.625 g ai/ha; for pest or weed control at 15.625 g/ha / pest or weed control at 250 g/ha: read-out: Velvetleaf damage rating (100=total damage to plant; 0=no damage to plant); for pest or weed control at 62.5 g/ha: 62.5 g ai/ha, 100=total damage to plant, 0=no damage to plant, read-out: plant damage rating, Velvetleaf; for pest or weed control at 250 g/ha: 250 g ai/ha
In short: as §1

[7] = system: barnyardgrass (Echinochloa crus-galli); experiment: Test G Post-Emergence Protocol; conditions: Echinochloa crus-galli, post-emergence, 312 h; for pest or weed control at 15.625 g/ha: 15.625 g ai/ha, evaluated after 13 days (100=total damage to plant; 0=no damage to plant), read-out: Barnyardgrass damage rating; for pest or weed control at 62.5 g/ha: 62.5 g ai/ha, read-out: Barnyardgrass damage rating (100=total damage to plant; 0=no damage to plant); for pest or weed control at 62.5 g/ha / pest or weed control at 250 g/ha: evaluated after 13 days; for pest or weed control at 250 g/ha: 250 g ai/ha, read-out: damage to plant, Barnyardgrass (100=total damage to plant; 0=no damage to plant)
In short: (§2)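 Damage was rated 13 days after treatment from 0 (none) to 100 (plant killed). Compound was applied as a spray at 15.625, 62.5 or 250 g/ha in 50:50 acetone/water containing 0.5% Tween 20, onto 8-day-old potted plants kept in a glasshouse (24/16 °C, 14 h light, 65% humidity).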

corn (Zea mays) [8] = experiment: Test G Post-Emergence Protocol; conditions: Zea mays, post-emergence, 312 h; for plant injury at 15.625 g/ha: 15.625 g ai/ha, evaluated after 13 days (100=total damage to plant; 0=no damage to plant), read-out: Corn damage rating; for plant injury at 62.5 g/ha: 62.5 g ai/ha, read-out: Corn damage rating (100=total damage to plant; 0=no damage to plant); for plant injury at 62.5 g/ha / plant injury at 250 g/ha: evaluated after 13 days; for plant injury at 250 g/ha: 250 g ai/ha, read-out: damage to plant, Corn (100=total damage to plant; 0=no damage to plant)
In short: as §2

[9] = system: giant foxtail (Setaria faberi); experiment: Test G Post-Emergence Protocol; conditions: Setaria faberi, post-emergence, 312 h; for pest or weed control at 15.625 g/ha: 15.625 g ai/ha, evaluated after 13 days (100=total damage to plant; 0=no damage to plant), read-out: Foxtail, Giant damage rating; for pest or weed control at 62.5 g/ha: 62.5 g ai/ha, read-out: Foxtail, Giant damage rating (100=total damage to plant; 0=no damage to plant); for pest or weed control at 62.5 g/ha / pest or weed control at 250 g/ha: evaluated after 13 days; for pest or weed control at 250 g/ha: 250 g ai/ha, read-out: damage to plant, Foxtail, Giant (100=total damage to plant; 0=no damage to plant)
In short: as §2

[10] = system: ivy-leaved morning glory (Ipomoea hederacea); experiment: Test G Post-Emergence Protocol; conditions: Ipomoea, post-emergence, 312 h; for pest or weed control at 15.625 g/ha: 15.625 g ai/ha, evaluated after 13 days (100=total damage to plant; 0=no damage to plant), read-out: Morningglory, Ivy-leaved damage rating; for pest or weed control at 62.5 g/ha: 62.5 g ai/ha, read-out: Morningglory, Ivy-leaved damage rating (100=total damage to plant; 0=no damage to plant); for pest or weed control at 62.5 g/ha / pest or weed control at 250 g/ha: evaluated after 13 days; for pest or weed control at 250 g/ha: 250 g ai/ha, read-out: damage to plant, Morningglory, Ivy-leaved (100=total damage to plant; 0=no damage to plant)
In short: as §2

[11] = system: redroot pigweed (Amaranthus retroflexus); experiment: Test G Post-Emergence Protocol; conditions: Amaranthus retroflexus, post-emergence, 312 h; for pest or weed control at 15.625 g/ha: 15.625 g ai/ha, evaluated after 13 days (100=total damage to plant; 0=no damage to plant), read-out: Pigweed, Redroot damage rating; for pest or weed control at 62.5 g/ha: 62.5 g ai/ha, read-out: Pigweed, Redroot damage rating (100=total damage to plant; 0=no damage to plant); for pest or weed control at 62.5 g/ha / pest or weed control at 250 g/ha: evaluated after 13 days; for pest or weed control at 250 g/ha: 250 g ai/ha, read-out: damage to plant, Pigweed, Redroot (100=total damage to plant; 0=no damage to plant)
In short: as §2

[12] = system: velvetleaf (Abutilon theophrasti); experiment: Test G Post-Emergence Protocol; conditions: Abutilon theophrasti, post-emergence, 312 h; for pest or weed control at 15.625 g/ha: 15.625 g ai/ha, evaluated after 13 days (100=total damage to plant; 0=no damage to plant), read-out: Velvetleaf damage rating; for pest or weed control at 62.5 g/ha: 62.5 g ai/ha, read-out: Velvetleaf damage rating (100=total damage to plant; 0=no damage to plant); for pest or weed control at 62.5 g/ha / pest or weed control at 250 g/ha: evaluated after 13 days; for pest or weed control at 250 g/ha: 250 g ai/ha, read-out: damage to plant, Velvetleaf (100=total damage to plant; 0=no damage to plant)
In short: as §2

| Structure (SMILES) | pest or weed control at 15.625 g/ha [1] [%] | pest or weed control at 62.5 g/ha [1] [%] | pest or weed control at 250 g/ha [1] [%] | plant injury at 15.625 g/ha (corn (Zea mays) [2]) [%] | plant injury at 62.5 g/ha (corn (Zea mays) [2]) [%] | plant injury at 250 g/ha (corn (Zea mays) [2]) [%] | pest or weed control at 15.625 g/ha [3] [%] | pest or weed control at 62.5 g/ha [3] [%] | pest or weed control at 250 g/ha [3] [%] | pest or weed control at 15.625 g/ha [4] [%] | pest or weed control at 62.5 g/ha [4] [%] | pest or weed control at 250 g/ha [4] [%] | pest or weed control at 15.625 g/ha [5] [%] | pest or weed control at 62.5 g/ha [5] [%] | pest or weed control at 250 g/ha [5] [%] | pest or weed control at 15.625 g/ha [6] [%] | pest or weed control at 62.5 g/ha [6] [%] | pest or weed control at 250 g/ha [6] [%] | pest or weed control at 15.625 g/ha [7] [%] | pest or weed control at 62.5 g/ha [7] [%] | further results |
| --- | --- | --- | --- | --- | --- | --- | --- | --- | --- | --- | --- | --- | --- | --- | --- | --- | --- | --- | --- | --- | --- |
| CN1C[C@@H](c2ccc(C(F)(F)F)cc2)[C@H](C(=O)Nc2ncc(Cl)s2)C1=O (racemic) [Compound 1569] | 0 | 0 | 0 | 0 | 0 | 0 | 0 | 0 | 0 | 0 | 0 | 0 | 0 | 0 | 0 | 0 | 0 | 0 | 0 | 10 | pest or weed control at 250 g/ha [7]: 20%; plant injury at 15.625 g/ha (corn (Zea mays) [8]): 0%; plant injury at 62.5 g/ha (corn (Zea mays) [8]): 0%; plant injury at 250 g/ha (corn (Zea mays) [8]): 0%; pest or weed control at 15.625 g/ha [9]: 0%; pest or weed control at 62.5 g/ha [9]: 0%; pest or weed control at 250 g/ha [9]: 0%; pest or weed control at 15.625 g/ha [10]: 0%; pest or weed control at 62.5 g/ha [10]: 0%; pest or weed control at 250 g/ha [10]: 0%; pest or weed control at 15.625 g/ha [11]: 0%; pest or weed control at 62.5 g/ha [11]: 0%; pest or weed control at 250 g/ha [11]: 0%; pest or weed control at 15.625 g/ha [12]: 0%; pest or weed control at 62.5 g/ha [12]: 0%; pest or weed control at 250 g/ha [12]: 0% |
| CN1C[C@@H](c2ccc(C(F)(F)F)nc2)[C@H](C(=O)Nc2cccc(F)c2F)C1=O (racemic) [Compound 1458] | 20 | 80 | 80 | 0 | 0 | 50 | 20 | 80 | 80 | 0 | 0 | 20 | 0 | 0 | 70 | 0 | 0 | 30 | 10 | 20 | pest or weed control at 250 g/ha [7]: 20%; plant injury at 15.625 g/ha (corn (Zea mays) [8]): 10%; plant injury at 62.5 g/ha (corn (Zea mays) [8]): 10%; plant injury at 250 g/ha (corn (Zea mays) [8]): 10%; pest or weed control at 15.625 g/ha [9]: 30%; pest or weed control at 62.5 g/ha [9]: 50%; pest or weed control at 250 g/ha [9]: 60%; pest or weed control at 15.625 g/ha [10]: 10%; pest or weed control at 62.5 g/ha [10]: 20%; pest or weed control at 250 g/ha [10]: 30%; pest or weed control at 15.625 g/ha [11]: 10%; pest or weed control at 62.5 g/ha [11]: 30%; pest or weed control at 250 g/ha [11]: 30%; pest or weed control at 15.625 g/ha [12]: 0%; pest or weed control at 62.5 g/ha [12]: 0%; pest or weed control at 250 g/ha [12]: 0% |
| Cc1csc(NC(=O)[C@@H]2C(=O)N(C)C[C@H]2c2ccc(C(F)(F)F)cc2)c1C#N (racemic) [Compound 1576] | 30 | 70 | 90 | 0 | 0 | 20 | 30 | 70 | 70 | 0 | 0 | 0 | 0 | 0 | 20 | 0 | 0 | 0 | 10 | 60 | pest or weed control at 250 g/ha [7]: 70%; plant injury at 15.625 g/ha (corn (Zea mays) [8]): 0%; plant injury at 62.5 g/ha (corn (Zea mays) [8]): 20%; plant injury at 250 g/ha (corn (Zea mays) [8]): 10%; pest or weed control at 15.625 g/ha [9]: 30%; pest or weed control at 62.5 g/ha [9]: 40%; pest or weed control at 250 g/ha [9]: 70%; pest or weed control at 15.625 g/ha [10]: 0%; pest or weed control at 62.5 g/ha [10]: 20%; pest or weed control at 250 g/ha [10]: 20%; pest or weed control at 15.625 g/ha [11]: 0%; pest or weed control at 62.5 g/ha [11]: 0%; pest or weed control at 250 g/ha [11]: 0%; pest or weed control at 15.625 g/ha [12]: 0%; pest or weed control at 62.5 g/ha [12]: 0%; pest or weed control at 250 g/ha [12]: 10% |
